Results taken from patent US20220031667A1, “THIAZOLIDINEDIONE ANALOGS FOR THE TREATMENT OF NAFLD AND METABOLIC DISEASES” (Cirius Therapeutics, Inc., priority 2019, published 2022).
Entries after “also recorded” stand apart in the source; their conditions may differ.

Assays:
[1] = test system: mice on high fat, high cholesterol, high sugar diet; assay: preclinical NASH model: diet enriched in trans fat, cholesterol and fructose for 19 weeks; format: in vivo
Experimental: Mice were fed a diet enriched in trans fat, cholesterol and fructose for 19 weeks to induce hepatic damage, which was assessed by histological changes in the NAS and fibrosis, measured by trichrome staining for collagen. MSDC-0602K (30 mg/kg) was given at either four weeks into the treatment or 16 weeks into the treatment as compared to the vehicle treated mice who were also on the modified diet. The results of mice who were kept on the normal diet are included for comparison. […] The signals for activation of the stellate cells and fibrosis are attenuated by treatment of the mice or isolated hepatocytes with MSDC-0602K.

[2] = clinical pharmacokinetics (Phase 1 cross-over trials, Phase 2a trial); details: human, in vivo; humans, oral
[3] = test system: WT mice on HTF-C diet (mouse model of NASH); assay: NASH (HTF-C) diet plasma RNA experiments: serum miRNA sequencing; format: in vivo; details: HTF-C diet 4 or 16 weeks, then HTF-C diet containing 331 ppm
Experimental: To begin evaluating the exosome cargo of MSDC-0602K-treated mice, WT mice were fed with either a low fat (LF) control diet (Research Diets D09100304) or high trans-fat, fructose, cholesterol (HTF-C) diet composed of 40% trans-fat, 20% fructose, 2% cholesterol (Research Diets D09100301).
Total RNA was isolated from 400 μL of serum and small RNA sequencing was performed by adapter ligation, cDNA synthesis and size selection of 145-160 base pairs. Sequencing was then performed on an Illumina HiSeq3000.

[4] = target: T1, MPC (mitochondrial pyruvate carrier) (Homo sapiens, UniProt O95563+Q9Y5U8); assay: relative binding affinities with the MPC; details: FIG. 16 as printed (legend: FIG. 8); relative to rosiglitazone and pioglitazone
T1 sequence (Q9Y5U8 1-109): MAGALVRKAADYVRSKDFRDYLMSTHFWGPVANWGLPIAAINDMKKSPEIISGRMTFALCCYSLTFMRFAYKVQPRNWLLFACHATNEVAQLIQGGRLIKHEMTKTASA
T1 sequence (O95563 1-127): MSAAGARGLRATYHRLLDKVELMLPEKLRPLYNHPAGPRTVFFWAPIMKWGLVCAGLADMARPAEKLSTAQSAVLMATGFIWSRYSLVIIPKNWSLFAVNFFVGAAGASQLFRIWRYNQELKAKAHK

healthy volunteers = assay: three Phase 1 clinical trials in 126 healthy volunteers, safety; format: in vivo, humans; details: Phase 1, healthy volunteers
[5] = test system: diet-induced obese WT (fl/fl) and LS-MPC2−/− mice; assay: single dose in diet-induced obese (60% HF diet) WT and LS-MPC2−/− mice: GTT, plasma insulin, plasma ALT, liver qPCR; format: in vivo; details: for glucose tolerance (GTT): vs vehicle
Experimental: 8 week old WT and LS-MPC2−/− mice were fed a diet of 60% fat (Research Diets D12492) for 20 weeks to induce obesity and insulin resistance. Intraperitoneal glucose tolerance tests (GTT) were performed after a 4 h fast by injection of 1 g/kg D-glucose in saline i.p. to assess glucose tolerance. 3 days after the initial GTT, mice were randomized to receive a single gavage of either vehicle (1% CMC, 0.01% Tween-80) or 30 mg/kg MSDC-0602K. Plasma insulin was measured by Singulex assay and plasma ALT levels were measured by commercially-available kits (Teco Diagnostics). qPCR was performed by isolation of total RNA with RNA-Bee and reverse transcription with a high-capacity cDNA synthesis kit (Invitrogen). qPCR was performed on an Applied Biosystems real-time thermocycler.

[6] = exposure and bioavailability of MSDC-0602, its metabolite and the potassium salt; format: in vivo; details: parent plus metabolite exposure
PPARγ = target: T2, PPARγ (Homo sapiens, UniProt P37231); assay: relative binding affinities with PPARγ; details: FIG. 15 as printed (legend: FIG. 7)
T2 sequence (P37231 1-505): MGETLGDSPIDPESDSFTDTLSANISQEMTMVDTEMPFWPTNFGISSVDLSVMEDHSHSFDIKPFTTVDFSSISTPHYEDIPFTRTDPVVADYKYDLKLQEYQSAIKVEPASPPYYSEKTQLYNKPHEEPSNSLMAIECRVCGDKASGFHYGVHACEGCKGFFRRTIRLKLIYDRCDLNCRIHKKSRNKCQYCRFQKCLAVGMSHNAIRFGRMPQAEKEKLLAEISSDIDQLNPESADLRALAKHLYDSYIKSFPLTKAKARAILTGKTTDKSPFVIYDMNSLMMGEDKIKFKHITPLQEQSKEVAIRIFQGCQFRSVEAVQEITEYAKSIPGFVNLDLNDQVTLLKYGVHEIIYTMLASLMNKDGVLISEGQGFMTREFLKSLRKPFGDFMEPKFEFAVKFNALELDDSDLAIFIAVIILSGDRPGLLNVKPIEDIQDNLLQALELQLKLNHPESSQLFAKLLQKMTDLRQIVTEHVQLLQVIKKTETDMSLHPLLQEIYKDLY

[7] = test system: stellate cells in 3-dimensional bioprinted human liver organoids; assay: 3-dimensional bioprinted human liver organoids in medium with high sugars and fatty acid, collagen staining; format: cell-based; details: added to the tissue medium with high concentrations of sugars and fatty acid
[8] = preclinical toxicology, six- and twelve-month animal studies; format: in vivo
[9] = test system: subjects with biopsy proven NASH with fibrosis and no cirrhosis; assay: EMMINENCE Phase 2b clinical trial, interim analysis at six months; format: in vivo, humans; details: for peripheral edema present at 6 months: placebo 12.50%; for percentage of patients with high baseline ALT who returned to normal range: placebo 15%; for percentage of patients with high baseline AST who returned to normal range: placebo 20%
Source text: Detailed Description: This is a randomized, double-blinded study of three doses of MSDC-0602K or placebo given orally once daily to subjects with biopsy proven NASH with fibrosis and no cirrhosis. Visits to the clinic will be at baseline, 1, 2, 3, 6, 9, and 12 months, with one 2-week follow-up visit. Safety will be assessed by monitoring of vital signs, 12 lead electrocardiogram (ECG), physical examinations, safety labs, and adverse events (AEs).
An interim analysis of the EMMINENCE Phase 2b trial was conducted in the first 328 subjects who reached their six-month follow-up visit. […] In the two highest dose groups, at least 50% of patients with elevated baseline Alanine transaminase (ALT) or Aspartate Aminotransferase (AST) improved into the normal range at six months, as shown in Table 3.
The subjects included in this interim analysis had significant liver disease, as established by liver biopsy, with an average NAS at baseline of 5.3. […] Overall, baseline characteristics were well-balanced across treatment groups.

[10] = test system: cell functions and key regulatory proteins; assay: impact of MSDC-0602K vs overnutrition on cell functions and key regulatory proteins (Table 1)

With `COc1cccc(C(=O)COc2ccc(CC3SC(=O)NC3=O)cc2)c1` (centres unmarked) [MSDC-0602] the “protection against the high fat, high cholesterol, high sugar diet representative of NASH disease” value ([1]; multiple animal models of NASH) was “has been shown to protect”, the half-life [2] was 11 to 17 h and the “serum miRNAs altered by HTF-C diet” value [3] was “largely corrected”. For the same compound, the “binding to the MPC” value [4] was “maintain, and in some cases improve, binding to the MPC”, the “most commonly reported adverse events” value (healthy volunteers) was “commonly reported adverse events with MSDC-0602 were headache,; also recorded: emesis, diarrhea and abdominal bloating” and the “deaths, serious adverse events, severe adverse events or discontinuations due to adverse events” value (healthy volunteers; MSDC-0602 or MSDC-0602K) was “No deaths”. The “safety laboratory tests, vital signs, physical examination findings or electrocardiogram abnormalities considered clinically significant” value (healthy volunteers; MSDC-0602 or MSDC-0602K) was “events were reported. Overall, it was determined that there were no”, the “plasma ALT and liver injury gene expression in LS-MPC2−/− mice” value ([5]; LS-MPC2−/− mice, acute treatment) was “refractory to the beneficial effects” and the “plasma ALT concentrations” value ([5]; WT mice, single dose (FIG. 3A)) was “decreased plasma ALT concentrations”. The “gene expression for hepatic stellate cell activation and fibrotic scar formation” value ([5]; WT mice, single dose (FIG. 3B)) was “decreased gene expression”, the plasma insulin values ([5]; both WT and LS-MPC2−/− mice, single dose 30 mg/kg) was “decreased” and the “glucose tolerance (GTT)” value ([5]; obese LS-MPC2−/− mice, GTT 20 h after a single dose of 30 mg/kg) was “no improvement in glucose tolerance”. The “glucose tolerance (GTT)” value ([5]; obese WT mice, GTT 20 h after a single gavage of 30 mg/kg) was “improved glucose tolerance”.
For `COc1cccc(C(O)COc2ccc(CC3SC(=O)NC3=O)cc2)c1` (centres unmarked) [primary metabolite of MSDC-0602], the “share of the combined exposure” value [6] was “more than 90%”, the “reduction in binding affinity for PPARγ compared to pioglitazone” value (PPARγ) was “more than fifty-fold reduction” and the “binding to the MPC” value [4] was “maintain, and in some cases improve, binding to the MPC”.
In the case of `COc1cccc(C(=O)COc2ccc(CC3SC(=O)NC3=O)cc2)c1` (centres unmarked) [MSDC-0602K], the “signals for activation of the stellate cells and fibrosis” value ([1]; 30 mg/kg from week 4 or week 16 of a 19 week diet, mice or isolated hepatocytes) is reported as “attenuated”, the “nutrient-induced stellate cell activation and fibrosis (staining for collagen)” value [7] is reported as “both prevented and reversed the effects of the nutrients” and the “safety findings in toxicological profile” value ([8]; doses up to seven-fold the currently used clinical dose equivalents) is reported as “free acid, have been characterized and no significant safety findings”. The safety and tolerability ([8]; six- and twelve-month preclinical animal studies) was 0602K, MSDC-0602K was found to be safe and well-tolerated, the “peripheral edema present at 6 months” value ([9]; 62.5 mg (n = 81), baseline 13.60%) was 7.80% and the “percentage of patients with high baseline ALT who returned to normal range” value ([9]; 62.5 mg, six months) was 29%. The “percentage of patients with high baseline AST who returned to normal range” value ([9]; 62.5 mg, six months) was 36%, the “peripheral edema present at 6 months” value ([9]; 125 mg (n = 84), baseline 13.10%) was 13.50% and the “placebo-corrected reduction in ALT at six months” value ([9]; 125 mg once daily, p<0.001) was 14.3 U/L. For the same compound, the “placebo-corrected reduction in AST at six months” value ([9]; 125 mg once daily, p=0.012) was 7.9 U/L, the “percentage of patients with high baseline ALT who returned to normal range” value ([9]; 125 mg, six months) was 60% and the “percentage of patients with high baseline AST who returned to normal range” value ([9]; 125 mg, six months) was 50%. For the same compound, the “peripheral edema present at 6 months” value ([9]; 250 mg (n = 85), baseline 9.40%) was 11.10%, the “placebo-corrected reduction in AST at six months” value ([9]; 250 mg once daily, not significant) was 4.0 U/L and the “placebo-corrected reduction in ALT at six months” value ([9]; 250 mg once daily, p=0.004) was 10.6 U/L. For the same compound, the “percentage of patients with high baseline ALT who returned to normal range” value ([9]; 250 mg, six months) was 56%, the “percentage of patients with high baseline AST who returned to normal range” value ([9]; 250 mg, six months) was 52% and the HbA1c ([9]; Type II diabetes subjects, all doses) was “statistically significant improvement”. The “HOMA-IR and HbA1c” value ([9]; all MSDC-0602K dose cohorts, six months) was “Statistically significant reductions”, the “fasting glucose, HbA1c, insulin levels, and HOMA-IR” value ([9]; all subjects, six months, 125 mg and 250 mg doses) was “statistically significant improvements” and the Adiponectin ([9]; all treatment cohorts, dose dependent) was “increased significantly”. The “liver enzymes, including ALT and AST, at six months compared to baseline” value ([9]; first 328 subjects) was “statistically significant reductions”, the lipids ([9]; overall) was “neutral effect” and the “treatment emergent serious adverse events” value ([9]; reported in fourteen subjects, blinded across cohorts) was “none of which were determined by the investigator to be drug-related”. For the same compound, the “additional biomarkers of fibrosis such as hematocrit” value ([9]; six months) was “trends for improvement”, the “bilirubin, alkaline phosphatase, and gamma GT liver enzymes” value ([9]; six months) was “Improvements” and the “patients with elevated baseline ALT or AST improved into the normal range at six months” value ([9]; two highest dose groups (125 mg, 250 mg)) was “at least 50%”. The “C-Reactive Protein levels” value ([9]; two lowest doses) was “decrease”, the “Fatty acid oxidation (burning fat)” value [10] was “Increased” and the “HIF1α (transcription factor responding to oxygen)” value [10] was “Decreased”. The “Inflammation (ballooning due to injury)” value [10] was “Decreased”, the “Insulin sensitivity (cellular response to insulin)” value [10] was “Increased” and the “PPARγ, PPARα (transcription factors regulating fat metabolism and inflammation)” value [10] was “Increased”. For the same compound, the “SREBP (transcription factor regulating fat synthesis)” value [10] was “Decreased”, the “de novo lipid synthesis (making new fat)” value [10] was “Decreased” and the “mTORC1 (important nutrient sensor)” value [10] was “Decreased”. For the same compound, the “glucose tolerance (GTT)” value ([5]; obese WT mice, GTT 20 h after a single gavage of 30 mg/kg, 30 mg/kg) was “improves glucose tolerance”.
